Results reported in patent US20240139166A1, “OPHTHALMIC COMPOSITIONS FOR PRESBYOPIA” (Sydnexis, Inc., priority 2021, published 2024).

Assay: Stability of pilocarpine in deuterated water (pilocarpic acid formation)
Type: physicochemical
Description: The stability of pilocarpine was tested over a range of concentrations. Pilocarpic acid formation, a major degradant of pilocarpine, was measured. […] The stability of pilocarpine, as measured by the percent of pilocarpic acid formation, was measured at different pH/pD values, as depicted in FIG. 2.

CC[C@@H]1C(=O)OC[C@@H]1Cc1cncn1C [pilocarpine]
Stability (pilocarpic acid formation) in deuterated water versus non-deuterated water (FIG. 1): improved stability in deuterated water as compared to non-deuterated water
Stability (pilocarpic acid formation) over a range of pilocarpine concentrations (FIG. 1): improved stability at higher concentrations of pilocarpine
Stabilizing factor of deuterated water versus pilocarpine concentration (FIG. 1): stabilizing factor increases as pilocarpine concentration decreases
Rate of pilocarpic acid formation at different pH/pD values (FIG. 2): linear log/log relationship was identified between the log(rate of pilocarpic acid formation) and pH
